# Measured values published in patent US9365522B2, “Pyrazole amide derivative” (AMGEN INC., priority 2015, dated 2016).
# Biological target: T1, ligand binding domain of human ROR gamma (Homo sapiens, UniProt P51449)
# T1 construct: NM_001001523; expressed in transfected cells; host or cells: HEK293T
# T1 sequence (P51449 247-497 isoform P51449-2): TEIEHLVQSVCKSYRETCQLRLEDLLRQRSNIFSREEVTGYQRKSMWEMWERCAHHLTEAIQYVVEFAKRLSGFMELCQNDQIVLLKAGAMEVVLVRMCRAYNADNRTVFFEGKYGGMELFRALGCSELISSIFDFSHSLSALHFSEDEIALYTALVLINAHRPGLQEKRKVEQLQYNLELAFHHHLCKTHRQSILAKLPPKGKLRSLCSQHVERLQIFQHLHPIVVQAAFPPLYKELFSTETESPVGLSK
# Experiment: ROR gamma reporter gene assay (GAL4-RORγ LBD luciferase, Dual-Glo)
# Assay type: cell-based
# Settings: HEK293T cells transfected with pM-ROR gamma, 8 concentrations 3.5 nM to 10.5 μM, 24 h incubation; read-out: result (pIC50, inhibition of RORγ transcriptional activity) (converted)
# In short: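 Inhibition of RORγ-driven transcription was measured in HEK293T cells expressing a GAL4 fusion of the human RORγ LBD (aa 247-497), with renilla luciferase as internal control. Cells in 10% charcoal-stripped serum received compound (3.5 nM–10.5 μM) for 24 h.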
row,Compound,IC50
1,"CC1(CN(CC(=O)c2c(Cl)cncc2Cl)C(=O)c2cnn([C@H]3CC[C@](C)(C(=O)O)CC3)c2Cl)CC1 [Example 378, trans-4-(5-chloro-4-((2-(3,5-dichloropyridin-4-yl)-2-oxoethyl)-((1-methylcyclopropyl)methyl)carbamoyl)pyrazol-1-yl)-1-methylcyclohexane-1-carboxylic acid]",74100 pM
2,"Cc1cc(Cl)c(C(=O)CN(CC#CC(C)(C)C)C(=O)c2cnn([C@H]3CC[C@](C)(C(=O)O)CC3)c2C(F)(F)F)c(Cl)c1 [Example 206, trans-4-(4-((2-(2,6-dichloro-4-methylphenyl)-2-oxoethyl)-(4,4-dimethylpent-2-ynyl)carbamoyl)-5-(trifluoromethyl)pyrazol-1-yl)-1-methylcyclohexane-1-carboxylic acid]",100000 pM
3,"O=C(CN(Cc1cc(F)cc(F)c1)C(=O)c1cnn([C@H]2CC[C@H](C(=O)O)CC2)c1C(F)(F)F)c1c(Cl)cc(Cl)cc1Cl [Example 56, trans-4-(4-((3,5-difluorobenzyl)(2-oxo-2-(2,4,6-trichlorophenyl)ethyl)carbamoyl)-5-(trifluoromethyl)-1H-pyrazol-1-yl)cyclohexanecarboxylic acid]",15500 pM
4,"CC(CN(Cc1cc(F)cc(F)c1)C(=O)c1cnn([C@H]2CC[C@H](C(=O)O)CC2)c1C(F)(F)F)c1c(Cl)cccc1Cl (stereo partly drawn) [Example 108, trans-4-(4-(2-(2,6-dichlorophenyl)propyl-((3,5-difluorophenyl)methyl)carbamoyl)-5-(trifluoromethyl)pyrazol-1-yl)cyclohexane-1-carboxylic acid]",324000 pM
5,"CC(C)(C)[S+]([O-])CCN(CC(=O)c1c(Cl)cc(F)cc1Cl)C(=O)c1cnn([C@H]2CC[C@](C)(C(=O)O)CC2)c1C(F)(F)F (stereo partly drawn) [Example 351, trans-4-(4-(2-tert-butylsulfinylethyl-(2-(2,6-dichloro-4-fluorophenyl)-2-oxoethyl)carbamoyl)-5-(trifluoromethyl)pyrazol-1-yl)-1-methylcyclohexane-1-carboxylic acid]",7.24e+06 pM

# The remaining lines, values ahead:
row,IC50,Compound
1,302000 pM,"CC1(C)CC(N(CC(=O)c2c(Cl)cncc2Cl)C(=O)c2cnn([C@H]3CC[C@H](C(=O)O)CC3)c2C(F)(F)F)CO1 (stereo partly drawn) [Example 208, trans-4-(4-((2-(3,5-dichloropyridin-4-yl)-2-oxoethyl)-(5,5-dimethyloxolan-3-yl)carbamoyl)-5-(trifluoromethyl)pyrazol-1-yl)cyclohexane-1-carboxylic acid]"
2,24000 pM,"CC1(C)CC(CN(CC(=O)c2c(Cl)cncc2Cl)C(=O)c2cnn([C@H]3CC[C@H](C(=O)O)CC3)c2C(F)(F)F)C1 [Example 23, trans-4-(4-((2-(3,5-dichloropyridin-4-yl)-2-oxoethyl)((3,3-dimethylcyclobutyl)methyl)carbamoyl)-5-(trifluoromethyl)-1H-pyrazol-1-yl)cyclohexanecarboxylic acid]"
3,316000 pM,"O=C(CN(CC(F)(F)F)C(=O)c1cnn([C@H]2CC[C@H](C(=O)O)CC2)c1C(F)(F)F)c1c(Cl)cncc1Cl [Example 75, trans-4-(4-((2-(3,5-dichloropyridin-4-yl)-2-oxoethyl)(2,2,2-trifluoroethyl)carbamoyl)-5-(trifluoromethyl)-1H-pyrazol-1-yl)cyclohexanecarboxylic acid]"
4,1.55e+06 pM,"O=C(CN(C[C@@H]1CCOC1)C(=O)c1cnn([C@H]2CC[C@H](C(=O)O)CC2)c1C(F)(F)F)c1c(Cl)cncc1Cl [Example 38, trans-4-(4-((2-(3,5-dichloropyridin-4-yl)-2-oxoethyl)(((S)-tetrahydrofuran-3-yl)methyl)carbamoyl)-5-(trifluoromethyl)-1H-pyrazol-1-yl)cyclohexanecarboxylic acid]"
5,1.32e+06 pM,"O=C(CN(CC1CC1)C(=O)c1cnn([C@H]2CC[C@H](C(=O)O)CC2)c1C(F)(F)F)c1c(Cl)cncc1Cl [Example 72, trans-4-(4-((cyclopropylmethyl)(2-(3,5-dichloropyridin-4-yl)-2-oxoethyl)carbamoyl)-5-(trifluoromethyl)-1H-pyrazol-1-yl)cyclohexanecarboxylic acid]"
